Laboratory results as given in patent US20090298820A1, “3-SUBSTITUTED-1H-PYRROLO[2,3-B]PYRIDINE AND 3-SUBSTITUTED-1H-PYRROLO[3,2-B]PYRIDINE COMPOUNDS, THEIR USE AS MTOR KINASE AND PI3 KINASE INHIBITORS, AND THEIR SYNTHESES” (Wyeth, priority 2008, published 2009).
Where two headings read alike, the source gives them in different places.

Assays:
PI3Kγ = PI3Kγ (Homo sapiens, UniProt P48736); test: PI3K-gamma fluorescence polarization assay; assay type: biochemical; conditions: read-out: PI3Kγ Median IC50
Sequence of PI3Kγ (P48736 whole entry, species assumed): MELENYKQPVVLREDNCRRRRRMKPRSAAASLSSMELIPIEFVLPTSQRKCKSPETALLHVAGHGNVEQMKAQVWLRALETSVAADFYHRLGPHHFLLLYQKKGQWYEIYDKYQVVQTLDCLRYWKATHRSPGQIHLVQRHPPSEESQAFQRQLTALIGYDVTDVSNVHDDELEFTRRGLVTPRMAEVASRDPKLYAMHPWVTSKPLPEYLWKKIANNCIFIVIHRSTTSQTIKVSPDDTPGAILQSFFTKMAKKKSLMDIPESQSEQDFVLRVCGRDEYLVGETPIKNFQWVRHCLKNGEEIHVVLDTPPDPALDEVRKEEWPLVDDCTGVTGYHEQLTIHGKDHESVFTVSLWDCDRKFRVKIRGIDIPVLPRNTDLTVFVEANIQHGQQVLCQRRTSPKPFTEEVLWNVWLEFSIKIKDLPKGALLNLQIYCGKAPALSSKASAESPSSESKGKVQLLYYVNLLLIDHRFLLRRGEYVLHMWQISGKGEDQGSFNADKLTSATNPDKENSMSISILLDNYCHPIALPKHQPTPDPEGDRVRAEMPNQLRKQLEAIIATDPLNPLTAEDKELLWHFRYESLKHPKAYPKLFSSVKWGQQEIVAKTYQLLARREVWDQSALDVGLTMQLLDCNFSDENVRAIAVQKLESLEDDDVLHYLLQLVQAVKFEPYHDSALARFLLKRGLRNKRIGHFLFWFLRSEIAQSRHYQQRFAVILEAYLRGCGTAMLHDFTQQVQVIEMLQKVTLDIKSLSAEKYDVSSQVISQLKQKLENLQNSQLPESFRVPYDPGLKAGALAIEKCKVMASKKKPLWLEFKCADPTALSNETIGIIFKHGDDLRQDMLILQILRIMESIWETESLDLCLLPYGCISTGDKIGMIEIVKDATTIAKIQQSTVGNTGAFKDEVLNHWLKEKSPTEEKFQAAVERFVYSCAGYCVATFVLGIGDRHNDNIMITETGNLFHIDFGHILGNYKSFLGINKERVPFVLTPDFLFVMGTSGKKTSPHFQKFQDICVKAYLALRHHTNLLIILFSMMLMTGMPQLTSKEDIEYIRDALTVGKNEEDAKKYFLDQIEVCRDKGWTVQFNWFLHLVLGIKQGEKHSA

PI3Kα = PI3Kα (Homo sapiens, UniProt P42336); test: PI3K-alpha fluorescence polarization assay; assay type: biochemical; conditions: read-out: PI3Kα Median IC50
Sequence of PI3Kα (P42336 whole entry, species assumed): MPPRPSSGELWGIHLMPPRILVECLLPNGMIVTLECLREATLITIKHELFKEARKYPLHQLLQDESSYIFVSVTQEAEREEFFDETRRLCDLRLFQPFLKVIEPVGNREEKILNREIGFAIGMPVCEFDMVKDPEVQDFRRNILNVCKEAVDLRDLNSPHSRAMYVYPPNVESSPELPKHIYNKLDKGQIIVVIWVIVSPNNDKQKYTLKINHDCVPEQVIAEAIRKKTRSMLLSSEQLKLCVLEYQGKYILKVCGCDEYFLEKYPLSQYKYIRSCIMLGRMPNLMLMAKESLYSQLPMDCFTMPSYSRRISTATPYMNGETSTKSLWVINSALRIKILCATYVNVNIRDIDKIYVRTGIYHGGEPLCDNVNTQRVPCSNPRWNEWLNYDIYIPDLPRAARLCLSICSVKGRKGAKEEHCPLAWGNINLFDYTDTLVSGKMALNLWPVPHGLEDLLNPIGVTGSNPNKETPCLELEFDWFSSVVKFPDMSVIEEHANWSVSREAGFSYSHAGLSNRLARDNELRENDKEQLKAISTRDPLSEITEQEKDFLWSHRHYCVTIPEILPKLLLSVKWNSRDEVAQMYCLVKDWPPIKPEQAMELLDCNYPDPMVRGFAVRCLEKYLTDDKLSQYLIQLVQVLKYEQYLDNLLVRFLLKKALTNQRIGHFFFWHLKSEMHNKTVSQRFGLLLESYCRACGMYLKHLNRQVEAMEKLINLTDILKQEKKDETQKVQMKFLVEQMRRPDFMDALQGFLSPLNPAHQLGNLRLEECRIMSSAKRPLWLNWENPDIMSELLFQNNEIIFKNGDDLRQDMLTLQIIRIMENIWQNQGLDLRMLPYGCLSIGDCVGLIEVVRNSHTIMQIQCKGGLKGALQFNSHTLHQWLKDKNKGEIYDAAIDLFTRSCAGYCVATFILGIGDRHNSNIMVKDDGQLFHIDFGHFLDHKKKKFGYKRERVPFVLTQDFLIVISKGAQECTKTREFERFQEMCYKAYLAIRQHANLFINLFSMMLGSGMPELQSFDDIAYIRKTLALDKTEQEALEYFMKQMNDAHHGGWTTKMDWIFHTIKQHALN
Sequence of PI3Kα (P27986 whole entry partner, species assumed): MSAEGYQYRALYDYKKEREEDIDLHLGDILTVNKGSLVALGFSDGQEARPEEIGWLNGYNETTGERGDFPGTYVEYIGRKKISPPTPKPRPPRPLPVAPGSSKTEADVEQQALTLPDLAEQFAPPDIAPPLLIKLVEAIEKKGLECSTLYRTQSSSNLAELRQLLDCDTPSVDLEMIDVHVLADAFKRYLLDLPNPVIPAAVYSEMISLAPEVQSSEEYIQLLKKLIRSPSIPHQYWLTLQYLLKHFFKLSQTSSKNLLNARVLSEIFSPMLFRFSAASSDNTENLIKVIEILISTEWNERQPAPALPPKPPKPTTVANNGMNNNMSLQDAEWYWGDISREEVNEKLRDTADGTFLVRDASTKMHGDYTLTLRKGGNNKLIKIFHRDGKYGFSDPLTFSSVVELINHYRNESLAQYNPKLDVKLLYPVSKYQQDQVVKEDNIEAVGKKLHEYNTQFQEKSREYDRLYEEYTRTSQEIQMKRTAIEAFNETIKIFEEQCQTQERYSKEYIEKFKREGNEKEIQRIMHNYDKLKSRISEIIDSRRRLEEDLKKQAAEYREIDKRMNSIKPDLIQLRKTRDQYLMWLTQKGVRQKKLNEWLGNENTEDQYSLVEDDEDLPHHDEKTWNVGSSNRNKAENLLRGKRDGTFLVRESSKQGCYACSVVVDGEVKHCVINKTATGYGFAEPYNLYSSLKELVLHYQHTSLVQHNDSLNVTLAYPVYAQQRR

mTOR = mTOR (Homo sapiens, UniProt P42345); test: mTOR enzyme assay (DELFIA format, His6-S6K substrate); assay type: biochemical
[1] = read-out: mTOR Kinase Median IC50

SMILES	IC50 (PI3Kγ)	melting point	IC50 (PI3Kα)	IC50 (mTOR; [1])	IC50 (mTOR)
Cn1cc(/C=C2\Oc3ccc(NC(=O)Nc4cccnc4)cc3C2=O)c2c(N3CCC(C(=O)N4CC5CC4CN5)CC3)ccnc21 (stereo not drawn) [Compound 264, 1-[(2Z)-2-({4-[4-(2,5-diazabicyclo[2.2.1]hept-2-ylcarbonyl)piperidin-1-yl]-1-methyl-1H-pyrrolo[2,3-b]pyridin-3-yl}methylene)-3-oxo-2,3-dihydro-1-benzofuran-5-yl]-3-pyridin-3-ylurea]	378 nM	257 to 262 °C (dec.)	6360 nM	16.5 nM	–
Cn1cc(/C=C2\Oc3ccc(NC(=O)Nc4cccnc4)cc3C2=O)c2c(N3CC4CC3CO4)ccnc21 (stereo not drawn) [Compound 283, 1-[(2Z)-2-{[1-methyl-4-(2-oxa-5-azabicyclo[2.2.1]hept-5-yl)-1H-pyrrolo[2,3-b]pyridin-3-yl]methylidene}-3-oxo-2,3-dihydro-1-benzofuran-5-yl]-3-pyridin-3-ylurea]	779 nM	218 to 222 °C (dec.)	350 nM	27 nM	–
COCCN(CCOC)C(=O)C1CCN(c2ccnc3c2c(/C=C2\Oc4ccc(NC(=O)Nc5cccnc5)cc4C2=O)cn3C)CC1 [Compound 251, N,N-bis(2-methoxyethyl)-1-{1-methyl-3-[(Z)-{3-oxo-5-[(pyridin-3-ylcarbamoyl)amino]-1-benzofuran-2(3H)-ylidene}methyl]-1H-pyrrolo[2,3-b]pyridin-4-yl}piperidine-4-carboxamide]	5580 nM	206 to 210 °C	4050 nM	16 nM	–
Cn1cc(/C=C2\Oc3cc(O)cc(O)c3C2=O)c2c(N3CCCCCC3)ccnc21 [Compound 65, (2Z)-2-[(4-azepan-1-yl-1-methyl-1H-pyrrolo[2,3-b]pyridin-3-yl)methylene]-4,6-dihydroxy-1-benzofuran-3(2H)-one]	60 nM	297 to 300 °C	41 nM	0.6 nM	–
Cn1cc(/C=C2\Oc3ccc(NC(=O)Nc4cccnc4)cc3C2=O)c2c(N3CCC(C(=O)N4C5CCC4COC5)CC3)ccnc21 [Compound 292, 1-[(2Z)-2-({1-methyl-4-[4-(3-oxa-8-azabicyclo[3.2.1]oct-8-ylcarbonyl)piperidin-1-yl]-1H-pyrrolo[2,3-b]pyridin-3-yl}methylidene)-3-oxo-2,3-dihydro-1-benzofuran-5-yl]-3-pyridin-3-ylurea]	> 10000 nM	197 to 203 °C	3480 nM	5.4 nM	–
Cn1cc(/C=C2\Oc3ccc(Br)cc3C2=O)c2c(-c3ccccc3)ccnc21 [Compound 37, (2Z)-5-bromo-2-[(1-methyl-4-phenyl-1H-pyrrolo[2,3-b]pyridin-3-yl)methylene]-1-benzofuran-3(2H)-one]	4000 nM	227 to 229 °C	6860 nM	> 4000 nM	–
Cn1cc(/C=C2\Oc3cccc(O)c3C2=O)c2c(O)ccnc21 [Compound 95, (2Z)-4-hydroxy-2-[(4-hydroxy-1-methyl-1H-pyrrolo[2,3-b]pyridin-3-yl)methylene]-1-benzofuran-3(2H)-one]	3240 nM	325 °C	479 nM	2000 nM	–
Cn1cc(/C=C2\Oc3cccc(O)c3C2=O)c2c(-c3ccccc3)ccnc21 [Compound 31, (2Z)-4-hydroxy-2-[(1-methyl-4-phenyl-1H-pyrrolo[2,3-b]pyridin-3-yl)methylene]-1-benzofuran-3(2H)-one]	187 nM	274 to 275 °C	89 nM	3.5 nM	–
Cn1cc(/C=C2\Oc3ccc(NC(=O)Nc4cccnc4)cc3C2=O)c2c(N3C4CCC3COC4)ccnc21 [Compound 280, 1-[(2Z)-2-{[1-methyl-4-(3-oxa-8-azabicyclo[3.2.1]oct-8-yl)-1H-pyrrolo[2,3-b]pyridin-3-yl]methylidene}-3-oxo-2,3-dihydro-1-benzofuran-5-yl]-3-pyridin-3-ylurea]	995 nM	250 to 255 °C (dec.)	179 nM	–	42 nM
